The values that follow come from paper PMC9501768, “A New Class of Tunable Acid-Sensitive Linkers for Native Drug Release Based on the Trityl Protecting Group” (Bioconjugate Chemistry, 2022).

Series [1] can be described thus: Release of native API from API-linker construct in buffer (UHPLC, first-order fit). The class given is physicochemical. How it is done: Release of DMXAA-amine 1 from the linker construct 12 (method described in S3.1) was measured at 37 °C for 24 h. At set time points, the concentration of the native compound 1 in a buffer of different pH values was measured by ultrahigh performance liquid chromatography (UHPLC) as shown in Figure 3.
The half-life values (t1/2) were determined from the slope of the first-order kinetic curves fitted through the release curve and are shown in Table 2. Details are provided in Section S3 of the Supporting Information. […]
S3: In vitro release protocol and stability control
S3.1 Release of API from API-linker construct
API-linker constructs 12-16, 17 and 18 were dissolved in DMSO at 1 mg/mL. This was then further diluted 10x in 20 mM sodium phosphate buffer 130 mM NaCl pH 7.4, 100 mM sodium citrate buffer 50 mM NaCl pH 6.5, 20 mM ammonium acetate 130 mM NaCl pH 5.0 or if needed 100 mM sodium phosphate buffer 50 mM NaCl pH 3.0. These dilutions were incubated at 37°C in the sample tray and at different timepoints, the concentration of free API 1, 2, or 3 was measured on a H-class UPLC system (Waters) (Figure S7 and S8)
Figure S 7: Chromatogram of 15 at 37°C, pH 7.4 t=0 hours
(1 picture or pasted object on this page, not shown here)
Figure S 8: Chromatogram of 15 at 37°C, pH 7.4, t= 12 hours […]
injection volume, 30 °C column temperature. Run with the following gradient: […]
Time (min) Flow rate %A %B
With A: 25 mM Ammonium acetate buffer pH 5.0 and B: acetonitrile.
2: Acquity HSS T3 1.7 μm, 50 x 2.1 mm column for 18 at 275 nm, 5.0 µL injection volume, 30 °C column temperature. Run with the following gradient: […]
Time (min) Flow rate % A % B
With A: phosphate buffer pH 2.5 and B: methanol.
3: Acquity BEH C18 1.7 μm, 50 x 2.1 mm for 18 at 233 nm, 2.0 µL injection volume, 30 °C column […]
With A: 10 mM ammonium bicarbonate pH 9.6 and B: acetonitrile.
Measured concentrations were plotted using GraphPad Prism 9 and fitted based on first order kinetics.
All fitted lines complied with an R2>0.95. This gave the half-life and plateau when this was not reached within the measured timeframe. […]
Size of all particles were confirmed to be between 55 and 70 nm.

Assay in series [2]: as above
It is filed as physicochemical. Particulars: pH 5.0, 37 °C.

On the set-up of series [3]: method as in PMID 14644. The note with it: doxorubicin amine nitrogen bound to trityl; cited from earlier work.
[4] abbreviates: ammonium acetate buffer, pH 5, API-trityl linker construct in buffer, pH 5.0, 37 °C, read-out: t1/2 pH 5.0 (converted).
[5] abbreviates: sodium citrate buffer, pH 6.5, API-trityl linker construct in buffer, pH 6.5, 37 °C, read-out: t1/2 pH 6.5 (converted).
[6] abbreviates: sodium phosphate buffer, pH 7.4, API-trityl linker construct in buffer, pH 7.4, 37 °C, values for 17 are estimations (doxorubicin precipitation), read-out: t1/2 pH 7.4 (converted).

Structures are written as SMILES. Where two headings read alike, the source gives them in different places.

Consider `COc1cccc2c1C(=O)c1c(O)c3c(c(O)c1C2=O)C[C@@](O)(C(=O)CO)C[C@@H]3O[C@H]1C[C@H](N)[C@H](O)[C@H](C)O1` [compound 2, doxorubicin, reference compound], for which the half-life at 0.1 mg/mL in series [1] (setting [4]) is below 1 h.
Turning to `Nc1ccn([C@@H]2O[C@H](CO)[C@@H](O)C2(F)F)c(=O)n1` [compound 3, gemcitabine], the “release at pH 5.0 within 72 h” value in series [2] is reported as “no detectable release”.
For `C=C(C)C(=O)NCCCNC(=O)c1cccc(C(Nc2ccc(CC(=O)[O-])c3oc4c(C)c(C)ccc4c(=O)c23)(c2ccc(OC)cc2)c2ccc(OC)cc2)c1.[Li+]` [compound 12], the half-life at 0.1 mg/mL was 1.8 ± 0.1 h in series [1] (setting [4]) and 83 ± 27 h in series [1] (setting [5]). Further, the “release of native DMXAA-amine 1 at pH 5” value in series [1] (construct in buffer, pH 5, 37 °C, within 12 h) came out at 100%. Moreover, the “release of native DMXAA-amine 1 at pH 6.5” value in series [1] (construct in buffer, pH 6.5, 37 °C, over 24 h) is around 20%. Also, the “release of native DMXAA-amine 1 at pH 7.4” value in series [1] (construct in buffer, pH 7.4, 37 °C, over 24 h) is listed as “Hardly any release”.
Consider `C=C(C)C(=O)NCCCNC(=O)c1ccc(C(Nc2ccc(CC(=O)[O-])c3oc4c(C)c(C)ccc4c(=O)c23)(c2ccc(OC)c(OC)c2)c2ccc(OC)c(OC)c2)cc1.[Li+]` [compound 13], for which the half-life at 0.1 mg/mL in series [1] (setting [4]) was below 1 h; in series [1] (setting [5]), 1.2 ± 0.1 h; in series [1] (setting [6]), 4.2 ± 0.2 h.
`C=C(C)C(=O)NCCCNC(=O)c1ccc(C(Nc2ccc(CC(=O)[O-])c3oc4c(C)c(C)ccc4c(=O)c23)(c2ccc(OC)cc2OC)c2ccc(OC)cc2OC)cc1.[Li+]` [compound 14]: the half-life at 0.1 mg/mL in series [1] (setting [4]), in series [1] (setting [5]) and in series [1] (setting [6]) was below 1 h each time.
Turning to `C=C(C)C(=O)NCCCNC(=O)c1ccc(C(Nc2ccc(CC(=O)[O-])c3oc4c(C)c(C)ccc4c(=O)c23)(c2ccc(OC)c(C)c2)c2ccc(OC)c(C)c2)cc1.[Li+]` [compound 15], the half-life at 0.1 mg/mL in series [1] (setting [4]) is below 1 h; in series [1] (setting [5]), 1.9 ± 0.2 h.
For `C=C(C)C(=O)NCCCNC(=O)c1cccc(C(Nc2ccc(CC(=O)[O-])c3oc4c(C)c(C)ccc4c(=O)c23)(c2ccc(OC)c(OC)c2)c2ccc(OC)c(OC)c2)c1.[Li+]` [compound 16], the half-life at 0.1 mg/mL in series [1] (setting [4]) is below 1 h; in series [1] (setting [5]) it was below 1 h; in series [1] (setting [6]) it was 2.3 ± 0.1 h.
For the molecule `C=C(C)C(=O)NCCCNC(=O)c1cccc(C(N[C@H]2C[C@H](O[C@H]3C[C@](O)(C(=O)CO)Cc4c(O)c5c(c(O)c43)C(=O)c3c(OC)cccc3C5=O)O[C@@H](C)[C@H]2O)(c2ccc(OC)cc2)c2ccc(OC)cc2)c1` [compound 17], the half-life at 0.1 mg/mL in series [1] (API-trityl linker construct in buffer, pH 5.0, 37 °C, read-out: t1/2 pH 5.0 (converted)) is below 1 h; in series [1] (API-trityl linker construct in buffer, pH 7.4, 37 °C, values for 17 are estimations (doxorubicin precipitation), read-out: t1/2 pH 7.4 (converted)), around 6 h. Further, the “pKa of the most basic nitrogen” value in series [3] is recorded as 8.4.
On to `C=C(C)C(=O)NCCCNC(=O)c1cccc(C(Nc2ccn([C@@H]3O[C@H](CO)[C@@H](O)C3(F)F)c(=O)n2)(c2ccc(OC)cc2)c2ccc(OC)cc2)c1` [compound 18], for which, in series [1] (API-trityl linker construct in buffer, pH 3.0, 37 °C, listed as gem–trityl 18), the “t1/2 pH 3.0 (h)” value turned out to be 23.2 ± 0.5 h. Also, the half-life at 0.1 mg/mL was above 72 h in series [1] (setting [4]); 23.3 h in series [1] (sodium phosphate buffer, pH 3, API-trityl linker construct in buffer, pH 3.0, 37 °C, read-out: t1/2 pH 3.0 (converted)); above 72 h in series [1] (setting [6]).
